Consider one compound from ChEMBL document CHEMBL4340530, “Peptide-based covalent inhibitors of MALT1 paracaspase” (Bioorg Med Chem Lett, 2019).

The term GI50 denotes the concentration at which growth is held to half of that of the control. As usually defined, the inhibition is how much of the control response was suppressed.

Data set [1] concerns OCI-Ly3. As to the kind of experiment: Antiproliferative activity against human OCI-LY3 cells assessed as growth inhibition treated every 48 hrs measured after 96 hrs by CellTiter-Glo assay. In kind it is functional.
The target in data set [2] is Cathepsin B (Homo sapiens) (UniProt P07858). Briefly: Inhibition of cathepsin B (unknown origin) at 10 uM relative to control.
Data set [3] concerns the target Prothrombin (Homo sapiens) (UniProt P00734). Briefly: Inhibition of thrombin (unknown origin) at 10 uM relative to control.
Data set [4] concerns the target T1, Trypsin (Homo sapiens) (UniProt P07477+P07478+P35030). As to the kind of experiment: Inhibition of trypsin (unknown origin) at 10 uM relative to control. The format is protein assay.
Data set [5] has as its target Tryptase beta-2 (Homo sapiens) (UniProt P20231). Briefly: Inhibition of tryptase b2 (unknown origin) at 10 uM relative to control.
Data set [6] deals with Cathepsin B (Homo sapiens) (UniProt P07858). As to the kind of experiment: Inhibition of cathepsin B (unknown origin) at 1 uM relative to control.
The target of data set [7] is Cathepsin S (Homo sapiens) (UniProt P25774). Briefly: Inhibition of cathepsin S (unknown origin) at 1 uM relative to control.
Sequence of Cathepsin S (Homo sapiens) (P25774 115-331 limits assumed): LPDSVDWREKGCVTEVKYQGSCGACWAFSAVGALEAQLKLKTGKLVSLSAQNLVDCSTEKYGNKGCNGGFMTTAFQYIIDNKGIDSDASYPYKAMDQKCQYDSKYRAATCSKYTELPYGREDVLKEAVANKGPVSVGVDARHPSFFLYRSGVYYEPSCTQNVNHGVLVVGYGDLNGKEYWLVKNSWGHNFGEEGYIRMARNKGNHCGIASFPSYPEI
Data set [8] deals with T1, Trypsin (Homo sapiens). As to the kind of experiment: Inhibition of trypsin (unknown origin) at 1 uM relative to control. In kind it is protein assay.
For data set [9], the target named is Tryptase beta-2 (Homo sapiens) (UniProt P20231). As to the kind of experiment: Inhibition of tryptase b2 (unknown origin) at 1 uM relative to control.
Sequence of Tryptase beta-2 (Homo sapiens) (P20231 whole entry): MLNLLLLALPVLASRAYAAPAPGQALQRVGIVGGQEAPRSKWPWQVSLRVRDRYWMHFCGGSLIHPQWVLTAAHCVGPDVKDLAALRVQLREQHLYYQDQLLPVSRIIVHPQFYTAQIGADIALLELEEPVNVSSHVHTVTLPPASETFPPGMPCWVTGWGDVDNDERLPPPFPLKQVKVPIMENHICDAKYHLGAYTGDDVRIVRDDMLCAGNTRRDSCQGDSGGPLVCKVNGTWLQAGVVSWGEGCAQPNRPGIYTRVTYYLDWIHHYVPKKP
Data set [10] has as its target Cathepsin B (Homo sapiens) (UniProt P07858). Briefly: Inhibition of cathepsin B (unknown origin) at 100 nM relative to control.
In data set [11] the target is Cathepsin S (Homo sapiens) (UniProt P25774). Briefly: Inhibition of cathepsin S (unknown origin) at 100 nM relative to control.
The target in data set [12] is Caspase-1 (Homo sapiens) (UniProt P29466). Briefly: Inhibition of caspase-1 (unknown origin) at 10 uM.
Sequence of Caspase-1 (Homo sapiens) (P29466 120-297 limits assumed): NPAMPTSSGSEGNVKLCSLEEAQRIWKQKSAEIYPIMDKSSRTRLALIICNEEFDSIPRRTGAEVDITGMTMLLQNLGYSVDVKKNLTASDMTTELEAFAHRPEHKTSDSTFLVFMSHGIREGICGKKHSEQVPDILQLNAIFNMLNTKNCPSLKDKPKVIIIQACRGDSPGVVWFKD
Sequence of Caspase-1 (Homo sapiens) (P29466 317-404 limits assumed): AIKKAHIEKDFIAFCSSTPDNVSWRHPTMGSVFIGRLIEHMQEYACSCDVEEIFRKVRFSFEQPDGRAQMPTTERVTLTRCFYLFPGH
Data set [13] concerns the target Caspase-2 (Homo sapiens) (UniProt P42575). Briefly: Inhibition of caspase-2 (unknown origin) at 10 uM.
Data set [14] addresses Caspase-3 (Homo sapiens) (UniProt P42574). As to the kind of experiment: Inhibition of caspase-3 (unknown origin) at 10 uM.
Data set [15] deals with Caspase-5 (Homo sapiens) (UniProt P51878). Briefly: Inhibition of caspase-5 (unknown origin) at 10 uM.
Sequence of Caspase-5 (Homo sapiens) (P51878 137-327 limits assumed): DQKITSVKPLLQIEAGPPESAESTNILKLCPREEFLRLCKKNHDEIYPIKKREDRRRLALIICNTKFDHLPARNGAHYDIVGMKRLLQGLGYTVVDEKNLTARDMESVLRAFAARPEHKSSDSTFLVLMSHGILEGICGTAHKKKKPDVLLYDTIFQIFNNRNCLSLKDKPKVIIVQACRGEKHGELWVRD
Sequence of Caspase-5 (Homo sapiens) (P51878 347-434 limits assumed): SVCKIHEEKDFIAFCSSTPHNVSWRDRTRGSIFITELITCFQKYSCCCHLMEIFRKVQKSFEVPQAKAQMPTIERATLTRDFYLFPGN
The target of data set [16] is Caspase-8 (Homo sapiens) (UniProt Q14790). As to the kind of experiment: Inhibition of caspase-8 (unknown origin) at 10 uM.
Sequence of Caspase-8 (Homo sapiens) (Q14790 217-374 limits assumed): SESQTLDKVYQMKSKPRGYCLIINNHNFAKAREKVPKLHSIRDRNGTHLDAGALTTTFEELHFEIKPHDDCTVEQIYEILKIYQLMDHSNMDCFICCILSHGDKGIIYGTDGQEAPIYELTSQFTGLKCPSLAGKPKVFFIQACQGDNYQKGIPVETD
Sequence of Caspase-8 (Homo sapiens) (Q14790 385-479 limits assumed): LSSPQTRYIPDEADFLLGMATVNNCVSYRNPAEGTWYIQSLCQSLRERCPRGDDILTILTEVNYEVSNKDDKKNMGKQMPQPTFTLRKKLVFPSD
Data set [17] addresses Caspase-10 (Homo sapiens) (UniProt Q92851). As to the kind of experiment: Inhibition of caspase-10 (unknown origin) at 10 uM.
In data set [18] the target is Cathepsin D (Homo sapiens) (UniProt P07339). As to the kind of experiment: Inhibition of cathepsin D (unknown origin) at 10 uM.
Sequence of Cathepsin D (Homo sapiens) (P07339 65-162 limits assumed): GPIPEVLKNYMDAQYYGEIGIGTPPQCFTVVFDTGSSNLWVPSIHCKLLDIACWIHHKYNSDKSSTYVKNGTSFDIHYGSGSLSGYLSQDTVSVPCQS
Sequence of Cathepsin D (Homo sapiens) (P07339 169-412 limits assumed): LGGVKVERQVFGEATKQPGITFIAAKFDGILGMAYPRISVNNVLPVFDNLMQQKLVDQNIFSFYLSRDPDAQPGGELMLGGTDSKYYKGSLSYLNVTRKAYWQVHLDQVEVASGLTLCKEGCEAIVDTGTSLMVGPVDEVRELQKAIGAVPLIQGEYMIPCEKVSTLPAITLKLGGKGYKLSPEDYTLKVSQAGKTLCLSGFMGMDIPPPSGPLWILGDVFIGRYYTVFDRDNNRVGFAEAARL
The target in data set [19] is Coagulation factor X (Homo sapiens) (UniProt P00742). Briefly: Inhibition of factor Xa (unknown origin) at 10 uM.
Sequence of Coagulation factor X (Homo sapiens) (P00742 41-179 limits assumed): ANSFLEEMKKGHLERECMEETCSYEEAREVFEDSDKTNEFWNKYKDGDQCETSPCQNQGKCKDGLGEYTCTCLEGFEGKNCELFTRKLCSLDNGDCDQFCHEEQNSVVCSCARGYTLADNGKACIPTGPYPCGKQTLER
Sequence of Coagulation factor X (Homo sapiens) (P00742 235-488 limits assumed): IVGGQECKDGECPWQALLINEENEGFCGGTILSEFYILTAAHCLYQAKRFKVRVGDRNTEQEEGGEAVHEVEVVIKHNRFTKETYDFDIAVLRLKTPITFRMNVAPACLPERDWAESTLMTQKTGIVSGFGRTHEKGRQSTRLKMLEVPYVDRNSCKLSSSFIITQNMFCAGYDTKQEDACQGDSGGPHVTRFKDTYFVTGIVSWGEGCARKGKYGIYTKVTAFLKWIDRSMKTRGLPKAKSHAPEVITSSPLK
Data set [20] has as its target Urokinase-type plasminogen activator (Homo sapiens) (UniProt P00749). As to the kind of experiment: Inhibition of urokinase (unknown origin) at 10 uM.
A short description of data set [21]: Drug uptake in ip dosed mouse plasma by LC-MS/MS analysis. The format is ADME, organism-based. As to conditions: in vivo.

The structures appear in SMILES notation. Active and inactive are the calls of the source. The calls are words filed in the database; no cut-off is given here.

Sequence of Caspase-10 (Homo sapiens) (Q92851 220-415 limits assumed): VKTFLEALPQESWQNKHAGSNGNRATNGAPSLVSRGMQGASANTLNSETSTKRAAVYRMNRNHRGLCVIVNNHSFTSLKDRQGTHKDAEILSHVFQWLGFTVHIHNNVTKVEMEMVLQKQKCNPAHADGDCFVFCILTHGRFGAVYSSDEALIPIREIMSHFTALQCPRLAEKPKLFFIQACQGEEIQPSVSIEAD
Sequence of Caspase-10 (Homo sapiens) (Q92851 416-521 limits assumed): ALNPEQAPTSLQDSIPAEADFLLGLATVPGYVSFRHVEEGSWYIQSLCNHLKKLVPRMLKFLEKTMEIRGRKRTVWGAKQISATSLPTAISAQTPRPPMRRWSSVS
Sequence of Caspase-2 (Homo sapiens) (P42575 170-325 limits assumed): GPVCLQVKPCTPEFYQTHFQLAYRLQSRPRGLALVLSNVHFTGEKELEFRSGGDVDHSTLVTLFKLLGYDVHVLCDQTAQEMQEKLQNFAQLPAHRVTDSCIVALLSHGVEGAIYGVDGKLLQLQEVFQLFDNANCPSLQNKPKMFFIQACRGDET
Sequence of Caspase-2 (Homo sapiens) (P42575 334-452 limits assumed): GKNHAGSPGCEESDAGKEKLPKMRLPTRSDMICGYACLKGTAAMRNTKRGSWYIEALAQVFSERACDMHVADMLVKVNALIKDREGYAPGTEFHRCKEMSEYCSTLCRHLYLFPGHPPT
Sequence of Caspase-3 (Homo sapiens) (P42574 29-175 limits assumed): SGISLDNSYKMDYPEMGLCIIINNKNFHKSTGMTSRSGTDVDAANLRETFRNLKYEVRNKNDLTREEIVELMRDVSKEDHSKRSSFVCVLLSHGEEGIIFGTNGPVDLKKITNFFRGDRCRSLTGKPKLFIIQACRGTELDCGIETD
Sequence of Caspase-3 (Homo sapiens) (P42574 176-277 limits assumed): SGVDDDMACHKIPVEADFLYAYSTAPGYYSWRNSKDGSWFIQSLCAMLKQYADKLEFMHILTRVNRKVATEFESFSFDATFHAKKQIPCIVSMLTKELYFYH

Consider `CC(C)[C@H](NC(=O)c1ccc(Br)cc1)C(=O)N1CCC[C@H]1C(=O)N[C@@H](CCCNC(=N)N)C(=O)CF`, for which the GI50 in data set [1] was found to be 130 nM. Moreover, the inhibition in data set [2] was 99.6%; in data set [3], 83%; in data set [4], 95.3%; in data set [5] it was 79%; in data set [6], 92.5%; in data set [7] it was 83.9%. The inhibition in [8] came out at 98%; in data set [9] it was 14%; in data set [10] it was 34.2%; in data set [11], 78.2%. For the same compound, the inhibition entry in data set [12], in [13], in data set [14], in data set [15], in data set [16] and in data set [17] was “Active” each time. Further, the inhibition result in data set [18], in data set [19] and in data set [20] was “Active” in each case. In addition, the Drug uptake result in data set [21] is recorded as “Active”.
